The test system of experiment [1] is rat islets. Kind of experiment: Perifusion assay of rat islet GSIS, step-wise glucose increase 2.8 to 16.7 mM. To be noted: for block of potentiation of GSIS by GLP-1, PKC inhibitors: 10 µM; for potentiation of first and second phase GSIS by cyclic nucleotide analog prodrug: 10 μM, representative of six independent experiments; for block of potentiation of GSIS by GLP-1 (1 nM), PLC inhibitor or negative control: 1 µM, pretreatment for 40 min; for effect of PLC inhibitor or negative control alone on GSIS: 1 µM in Fig. S2.

A further experiment relates to GcgR. To be noted: cited from earlier work.
The test system of a further experiment is GLP-1R. Conditions: cited from earlier work.
For the next experiment, the system named is mouse islets. To be noted: cited from earlier work.
The target of experiment [2] is endogenous rat GLP-1 receptor (rat (endogenous in INS-1 832/13 cells and rat islets)) (UniProt P32301).
Chain of endogenous rat GLP-1 receptor (rat (endogenous in INS-1 832/13 cells and rat islets)) (P32301 22-463): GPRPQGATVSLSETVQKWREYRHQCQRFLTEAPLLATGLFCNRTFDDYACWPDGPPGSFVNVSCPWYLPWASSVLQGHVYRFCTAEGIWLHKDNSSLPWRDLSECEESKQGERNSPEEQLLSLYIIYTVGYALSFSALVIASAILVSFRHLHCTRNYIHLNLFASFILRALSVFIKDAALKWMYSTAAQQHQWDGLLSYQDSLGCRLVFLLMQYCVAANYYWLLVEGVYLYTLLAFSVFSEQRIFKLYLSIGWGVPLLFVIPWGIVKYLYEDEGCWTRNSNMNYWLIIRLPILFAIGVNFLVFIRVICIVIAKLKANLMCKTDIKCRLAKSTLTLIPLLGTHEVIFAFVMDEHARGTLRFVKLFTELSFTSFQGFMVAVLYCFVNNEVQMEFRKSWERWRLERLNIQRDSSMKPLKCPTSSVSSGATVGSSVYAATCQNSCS
For another experiment, the system named is rat perfused pancreas. Conditions: ref 11 (Moens et al.); cited from earlier work.
The subject of experiment [3] is rat islets. Kind of experiment: Perifusion assay of rat islet GSIS, linear glucose gradient. The class given is cell-based, Sprague–Dawley rat.
Protocol: Monophasic insulin secretion from rat islets was measured in response to a linear gradient of glucose concentrations beginning at 3 mM and ending at 30 mM when delivered over a 50 min time course.
The panels A3–C3 illustrate box and whiskers AUC analyses with accompanying ANOVA derived p values where each symbol is the AUC value for the islets of a single perifusion chamber.
A further experiment deals with islets. Conditions: raising levels of cAMP; cited from earlier work. The source says:
Identifying the mechanism for this switch from cAMP-independent to cAMP-dependent insulin secretion is of great interest. Shibasaki et al. ([33]) reported a cAMP-regulated mechanism of insulin secretion that results from “restless newcomer” exocytosis in which Epac2 activation mobilizes cytoplasmic secretory granules so that they quickly transit to the plasma membrane for release without pausing in a “docked” state. When islets are stimulated with glucose alone, this newcomer exocytosis is more prominent during first-phase as compared with second-phase GSIS. Raising levels of cAMP by treatment ...

The next experiment deals with Epac. Conditions: read-out: IC50, block of GLP-1-stimulated cAMP (H188); INS-1 832/13 cells transduced with H188, GLP-1 stimulated.
Another experiment concerns β-cell GSIS. Conditions: cited from earlier work. The text has this: (§1) A selective effect is possible based on our previous report that the cAMP antagonist prodrug Rp-8-Br-cAMPS-pAB abolished first-phase but not second-phase GSIS in response to glucose alone ([25]).
Experiment [4] deals with T1, PKA.
T1 construct: endogenous PKA, read out indirectly with FRET reporter AKAR3 (PKA substrate)
Kind of experiment: Live-cell FRET assay (435 nm excitation, 485/535 emission ratio, pH 7.4) with PKA substrate reporter AKAR3; inhibition of PKA activity stimulated by GLP-1. To be noted: n = 12. It counts as cell-based, INS-1 832/13 cells transduced with AKAR3.

Another experiment deals with Epac1 and Epac2. To be noted: unconjugated Rp-8-Br-cAMPS; cited from earlier work.
Text: as §1

Experiment [5] concerns PKA. To be noted: unconjugated Rp-8-Br-cAMPS; cited from earlier work.
Text: as §1

Where [6] appears, read: Rp-8-Br-cAMPS-pAB 10 μM, five independent experiments.

`Cn1cc(C2=C(c3cn(CCCSC(=N)N)c4ccccc34)C(=O)NC2=O)c2ccccc21` [Ro 31-8220]: the “block of potentiation of GSIS by GLP-1, PKC inhibitors” value in the experiment on rat islets [1] is on record as “failed to block”.
With `COc1ccc2cc(-c3cc(-c4cc(Cl)cc(Cl)c4)nn3[C@@H](C)c3ccc(C(=O)NCCC(=O)O)cc3)ccc2c1` [MK0893], the “glucagon action at the GcgR” value in the experiment on GcgR is reported as “antagonizes”. Besides, in the experiment on GLP-1R, the “action at the GLP-1R” value is “antagonizes”. Besides, the “glucagon-stimulated insulin secretion from mouse islets” value with mouse islets is “inhibit”.
In experiment [2], GLP-1[7-36]amide (ligand) returned a PKA activity (AKAR3 FRET reporter) in INS-1 832/13 cells of 88 pM and a rise of cAMP (H188 FRET reporter) in INS-1 832/13 cells of 1.9 nM.
`CC(=O)OCOP1(=O)OCC2OC(n3cnc4c(NC(=O)c5ccccc5)ncnc43)C(O)C2O1` (centres unmarked) [6-Bnz-cAMP-AM]: the “potentiation of first and second phase GSIS by cyclic nucleotide analog prodrug” value in the experiment with rat islets [1] is “potentiated”.
For des-His^1-Glu^9-glucagon, the “insulin secretion in response to glucose alone, perfused rat pancreas” value in the experiment with rat perfused pancreas is “not reduced”. The “effect on glucagon-potentiated GSIS in the gradient assay” value in the experiment with rat islets [3] (des-His1-Glu9-glucagon 3 µM vs glucagon 10 nM, single experiment) was “not inhibited”. Moreover, the “effect on GSIS stimulated by a glucose gradient alone” value in the experiment with rat islets [3] (des-His1-Glu9-glucagon 3 µM, single experiment) is given as “failed to inhibit”.
For the compound `C=C[C@@]1(C)CC(=O)[C@]2(O)[C@@]3(C)[C@@H](O)CCC(C)(C)[C@@H]3[C@H](O)[C@H](OC(C)=O)[C@@]2(C)O1` [forskolin], in the experiment on islets, the “newcomer exocytosis during first-phase” value was “potentiates” and the “newcomer exocytosis during second-phase” value is reported as “greatly increasing”.
As a reminder, the IC50 is the concentration that gives 50% inhibition. As for `CC(=O)Oc1ccc(CSP2(=O)OC[C@H]3O[C@@H](n4c(Br)nc5c(N)ncnc54)[C@H](O)[C@@H]3O2)cc1` (some centres unmarked) [Rp-8-Br-cAMPS-pAB], in the experiment on rat islets [1] (Rp-8-Br-cAMPS-pAB 10 μM), the “antagonist action versus 5 nM GLP-1 in comparison with 1 nM GLP-1” value is “weaker”. For the same compound, the “block of potentiation of GSIS by glucagon” value in the experiment with rat islets [1] (Rp-8-Br-cAMPS-pAB 10 μM vs 10 nM glucagon, three independent experiments) was “blocked”. The “block of potentiation of first and second phase GSIS by GLP-1” value in the experiment on rat islets [1] (Rp-8-Br-cAMPS-pAB 10 μM vs GLP-1 5, 1, and 0.1 nM) is listed as “blocked”. Moreover, the “effect on second-phase GSIS in the presence of GLP-1” value in the experiment with rat islets [1] (Rp-8-Br-cAMPS-pAB 10 μM, GLP-1 1 nM) is given as “greatly reduced the amplitude of second-phase GSIS”. In addition, in the experiment on rat islets [1] (setting [6]), the “effect on first-phase GSIS in response to glucose alone” value was “blocked first-phase GSIS” and the “effect on second-phase GSIS in response to glucose alone” value was “little ability to reduce second-phase GSIS”. Besides, the IC50 with Epac was determined as 1.4 µM. Moreover, in the experiment with rat islets [3] (Rp-8-Br-cAMPS-pAB 10 μM vs glucagon 10 nM), the “effect on glucagon-potentiated GSIS in the gradient assay” value is listed as “blocked”. For the same compound, the “effect on GSIS stimulated by a glucose gradient alone” value in the experiment with rat islets [3] (Rp-8-Br-cAMPS-pAB 10 μM, three independent experiments) was “failed to inhibit”. Moreover, in the experiment with β-cell GSIS, the “effect on first-phase GSIS in response to glucose alone” value is “abolished” and the “effect on second-phase GSIS in response to glucose alone” value is listed as “not”.
As for `CN(C)C[C@@H]1CCn2cc(c3ccccc32)C2=C(C(=O)NC2=O)c2cn(c3ccccc23)CCO1` [LY 333531], the “block of potentiation of GSIS by GLP-1, PKC inhibitors” value with rat islets [1] was “failed to block”.
For `COc1ccc2c(c1)CC[C@@H]1[C@@H]2CC[C@]2(C)[C@@H](NCCCCCCN3C(=O)CCC3=O)CC[C@@H]12` [U73343], the “block of potentiation of GSIS by GLP-1 (1 nM), PLC inhibitor or negative control” value with rat islets [1] (GLP-1 1 nM) is “failed to block”. Moreover, in the experiment on rat islets [1], the “effect of PLC inhibitor or negative control alone on GSIS” value was “not reproduced”.
In the case of `CC(=O)Oc1ccc(CSP2(=O)OC[C@H]3O[C@@H](n4c(Br)nc5c(N)ncnc54)[C@H](O)[C@@H]3O2)cc1` (some centres unmarked) [Rp-8-Br-cAMPS-pAB, Rp-8-Br-cAMPS para-acetoxybenzyl (pAB) ester; membrane-permeable prodrug bioactivated by cytosolic esterases to Rp-8-Br-cAMPS], the half-inhibitory concentration (IC50) in the experiment with PKA [4] worked out at 2.8 µM.
Turning to `CO[C@@H]1[C@@H]2OP(=O)(OCOC(C)=O)OC[C@H]2O[C@H]1n1c(Sc2ccc(Cl)cc2)nc2c(N)ncnc21` (some centres unmarked) [8-pCPT-2′-O-Me-cAMP-AM], in the experiment with rat islets [1], the “potentiation of first and second phase GSIS by cyclic nucleotide analog prodrug” value is given as “potentiated”.
Regarding `Nc1ncnc2c1nc(Br)n2C1OC2COP(O)(=S)OC2C1O` (centres unmarked) [Rp-8-Br-cAMPS], in the experiment on Epac1 and Epac2, the “inhibition of stimulatory effects of endogenous cAMP at Epac1 and Epac2” value is listed as “competitively inhibits”. The “inhibition of stimulatory effects of endogenous cAMP at PKA” value in the experiment with PKA [5] is recorded as “competitively inhibits”.
With `COc1ccc2c(c1)CC[C@@H]1[C@@H]2CC[C@]2(C)[C@@H](NCCCCCCN3C(=O)C=CC3=O)CC[C@@H]12` [U73122], the “block of potentiation of GSIS by GLP-1 (1 nM), PLC inhibitor or negative control” value in the experiment with rat islets [1] (GLP-1 1 nM) is “failed to block”. Besides, in the experiment on rat islets [1], the “effect of PLC inhibitor or negative control alone on GSIS” value is on record as “potentiated GSIS”.

Source of the values: publication PMC8789663 (The Journal of Biological Chemistry, 2021).
